Assay results reported in patent US20020137929A1, “1 - (3-heterocyclylphenyl) isothiourea, -isourea, -guanidine and -amidine herbicidal agents” (Intellectual Property Department, BASF Aktiengesellschaft, priority 1998, published 2002).

Columns and labels:
[1] = tested on: CASOB (Sicklepod); test: Postemergence herbicidal evaluation; format: in vivo, Cassia obtusifolia; settings: postemergence
Summary of the method: (§1)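 Two-week-old seedlings sprayed with compound in 50/50 acetone/water plus 0.5% TWEEN 20, at about 0.0156 to 0.500 kg/ha, nozzle at 40 psi. Kept in greenhouse; rated visually 4-5 weeks after treatment on a 0-9 scale versus control, repeat tests averaged.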

[2] = tested on: CHEAL (Lambsquarters, Common); test: Postemergence herbicidal evaluation; format: in vivo, Chenopodium album; settings: postemergence
Summary of the method: as §1

[3] = tested on: GALAP (Galium); test: Postemergence herbicidal evaluation; format: in vivo, Galium aparine; settings: postemergence
Summary of the method: as §1

[4] = tested on: ORYSAT (Rice, Tebonnet); test: Postemergence herbicidal evaluation; format: in vivo, Oryza sativa, (L.) Tebonnet; settings: postemergence
Summary of the method: as §1

[5] = tested on: ZEAMX (Corn, Field); test: Postemergence herbicidal evaluation; format: in vivo, Zea mays; settings: postemergence
Summary of the method: as §1

[6] = tested on: AMBEL (Ragweed, Common); test: Preemergence herbicidal evaluation; format: in vivo, Ambrosia artemisifolia; settings: rated 4-5 weeks after treatment, rating scale 0-9
Summary of the method: (§2)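 In this greenhouse assay, monocot and dicot seeds are planted in soil and treated prior to emergence with an aqueous acetone spray (about 0.0156-0.500 kg/ha). Plants are assessed visually against control on a 0-9 scale after 4-5 weeks.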

[7] = tested on: SETVI (Foxtail, Green); test: Preemergence herbicidal evaluation; format: in vivo, Setaria viridis; settings: rated 4-5 weeks after treatment, rating scale 0-9
Summary of the method: as §2

[8] = tested on: GLXMAW (Soybean, Williams); test: Preemergence herbicidal evaluation; format: in vivo, Glycine max, (L.) Merr. cv Williams; settings: rated 4-5 weeks after treatment, rating scale 0-9
Summary of the method: as §2

[9] = tested on: ORYSAT (Rice, Tebonnet); test: Preemergence herbicidal evaluation; format: in vivo, Oryza sativa, (L.) Tebonnet; settings: rated 4-5 weeks after treatment, rating scale 0-9
Summary of the method: as §2

[10] = tested on: CYPSE (Flatsedge); test: Preemergence weed control under flooded paddy conditions; format: in vivo, Cyperus serotinus; settings: rated 3-4 weeks after treatment
Summary of the method: (§3)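 Values are visual 0-9 scores against a control for a preemergence application into paddy flood water at about 0.0313 to 0.500 kg/ha. Greenhouse duration was three to four weeks.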

[11] = tested on: MOOVA (Monochoria); test: as above; format: in vivo, Monochoria vaginalis; settings: rated 3-4 weeks after treatment
Summary of the method: as §3

Cn1c(C(F)(F)F)cc(=O)n(-c2cc(N=C3SCC(=O)N3Cc3cc(Cl)cc(Cl)c3)c(Cl)cc2F)c1=O [Compound 150, 3-{4-Chloro-5-{[3-(3,5-dichlorobenzyl)-4-oxo-2-thiazolidinylidene]amino}-2-fluorophenyl}-1-methyl-6-(trifluoromethyl)-2,4(1H,3H)-pyrimidinedione]
Herbicidal rating CASOB ([1]; rate 0.0156 kg/ha): 1.0 | Herbicidal rating CASOB ([1]; rate 0.0313 kg/ha): 3.0 | Herbicidal rating CASOB ([1]; rate 0.0625 kg/ha): 3.0 | Herbicidal rating CHEAL ([2]; rate 0.0156 kg/ha): 9.0 | Herbicidal rating CHEAL ([2]; rate 0.0313 kg/ha): 9.0 | Herbicidal rating CHEAL ([2]; rate 0.0625 kg/ha): 9.0 | Herbicidal rating GALAP ([3]; rate 0.0156 kg/ha): 1.0 | Herbicidal rating GALAP ([3]; rate 0.0313 kg/ha): 2.0 | Herbicidal rating GALAP ([3]; rate 0.0625 kg/ha): 4.0 | Herbicidal rating ORYSAT ([4]; rate 0.0156 kg/ha): 2.0 | Herbicidal rating ORYSAT ([4]; rate 0.0313 kg/ha): 2.5 | Herbicidal rating ORYSAT ([4]; rate 0.0625 kg/ha): 3.0 | Herbicidal rating ZEAMX ([5]; rate 0.0156 kg/ha): 4.0 | Herbicidal rating ZEAMX ([5]; rate 0.0313 kg/ha): 4.0 | Herbicidal rating ZEAMX ([5]; rate 0.0625 kg/ha): 4.0 | Preemergence herbicidal rating AMBEL ([6]; rate 0.0313 kg/ha): 0.0 | Preemergence herbicidal rating AMBEL ([6]; rate 0.0625 kg/ha): 0.0 | Preemergence herbicidal rating AMBEL ([6]; rate 0.1250 kg/ha): 3.0 | Preemergence herbicidal rating AMBEL ([6]; rate 0.2500 kg/ha): 7.0 | Preemergence herbicidal rating SETVI ([7]; rate 0.0313 kg/ha): 0.0 | Preemergence herbicidal rating SETVI ([7]; rate 0.0625 kg/ha): 0.0 | Preemergence herbicidal rating SETVI ([7]; rate 0.1250 kg/ha): 4.0 | Preemergence herbicidal rating SETVI ([7]; rate 0.2500 kg/ha): 9.0 | Preemergence herbicidal rating GLXMAW ([8]; rate 0.0313 kg/ha): 0.0 | Preemergence herbicidal rating GLXMAW ([8]; rate 0.0625 kg/ha): 0.0 | Preemergence herbicidal rating GLXMAW ([8]; rate 0.1250 kg/ha): 0.0 | Preemergence herbicidal rating GLXMAW ([8]; rate 0.2500 kg/ha): 2.0 | Preemergence herbicidal rating ORYSAT ([9]; rate 0.0313 kg/ha): 0.0 | Preemergence herbicidal rating ORYSAT ([9]; rate 0.0625 kg/ha): 1.0 | Preemergence herbicidal rating ORYSAT ([9]; rate 0.1250 kg/ha): 2.0 | Preemergence herbicidal rating ORYSAT ([9]; rate 0.2500 kg/ha): 1.0 | herbicidal effect rating, CYPSE ([10]; 0.1250 kg/ha): 9.0 | herbicidal effect rating, CYPSE ([10]; 0.2500 kg/ha): 9.0 | herbicidal effect rating, MOOVA ([11]; 0.0313 kg/ha): 6.0 | herbicidal effect rating, MOOVA ([11]; 0.0625 kg/ha): 9.0 | herbicidal effect rating, MOOVA ([11]; 0.1250 kg/ha): 9.0 | herbicidal effect rating, MOOVA ([11]; 0.2500 kg/ha): 9.0

Cn1c(C(F)(F)F)cc(=O)n(-c2cc(N=C3SCC(=O)N3Cc3ccc(F)cc3)c(Cl)cc2F)c1=O [Compound 151, 3-{4-Chloro-2-fluoro-5-{[3-(p-fluorobenzyl)-4-oxo-2-thiazolidinylidene]amino}phenyl}-1-methyl-6-(trifluoromethyl)-2,4(1H,3H)-pyrimidinedione]
Herbicidal rating CASOB ([1]; rate 0.0156 kg/ha): 2.0 | Herbicidal rating CASOB ([1]; rate 0.0313 kg/ha): 4.0 | Herbicidal rating CASOB ([1]; rate 0.0625 kg/ha): 4.0 | Herbicidal rating CHEAL ([2]; rate 0.0156 kg/ha): 9.0 | Herbicidal rating CHEAL ([2]; rate 0.0313 kg/ha): 7.0 | Herbicidal rating CHEAL ([2]; rate 0.0625 kg/ha): 9.0 | Herbicidal rating GALAP ([3]; rate 0.0156 kg/ha): 4.0 | Herbicidal rating GALAP ([3]; rate 0.0313 kg/ha): 4.0 | Herbicidal rating GALAP ([3]; rate 0.0625 kg/ha): 6.0 | Herbicidal rating ORYSAT ([4]; rate 0.0156 kg/ha): 2.0 | Herbicidal rating ORYSAT ([4]; rate 0.0313 kg/ha): 2.5 | Herbicidal rating ORYSAT ([4]; rate 0.0625 kg/ha): 3.5 | Herbicidal rating ZEAMX ([5]; rate 0.0156 kg/ha): 4.0 | Herbicidal rating ZEAMX ([5]; rate 0.0313 kg/ha): 4.5 | Herbicidal rating ZEAMX ([5]; rate 0.0625 kg/ha): 5.0 | Preemergence herbicidal rating AMBEL ([6]; rate 0.0156 kg/ha): 1.0 | Preemergence herbicidal rating AMBEL ([6]; rate 0.0313 kg/ha): 7.0 | Preemergence herbicidal rating AMBEL ([6]; rate 0.0625 kg/ha): 9.0 | Preemergence herbicidal rating AMBEL ([6]; rate 0.1250 kg/ha): 9.0 | Preemergence herbicidal rating AMBEL ([6]; rate 0.2500 kg/ha): 9.0 | Preemergence herbicidal rating SETVI ([7]; rate 0.0156 kg/ha): 9.0 | Preemergence herbicidal rating SETVI ([7]; rate 0.0313 kg/ha): 9.0 | Preemergence herbicidal rating SETVI ([7]; rate 0.0625 kg/ha): 9.0 | Preemergence herbicidal rating SETVI ([7]; rate 0.1250 kg/ha): 9.0 | Preemergence herbicidal rating SETVI ([7]; rate 0.2500 kg/ha): 9.0 | Preemergence herbicidal rating GLXMAW ([8]; rate 0.0156 kg/ha): 2.0 | Preemergence herbicidal rating GLXMAW ([8]; rate 0.0313 kg/ha): 5.0 | Preemergence herbicidal rating GLXMAW ([8]; rate 0.0625 kg/ha): 4.0 | Preemergence herbicidal rating GLXMAW ([8]; rate 0.1250 kg/ha): 7.0 | Preemergence herbicidal rating GLXMAW ([8]; rate 0.2500 kg/ha): 7.0 | Preemergence herbicidal rating ORYSAT ([9]; rate 0.0156 kg/ha): 2.0 | Preemergence herbicidal rating ORYSAT ([9]; rate 0.0313 kg/ha): 5.0 | Preemergence herbicidal rating ORYSAT ([9]; rate 0.0625 kg/ha): 5.0 | Preemergence herbicidal rating ORYSAT ([9]; rate 0.1250 kg/ha): 9.0 | Preemergence herbicidal rating ORYSAT ([9]; rate 0.2500 kg/ha): 9.0 | herbicidal effect rating, CYPSE ([10]; 0.0625 kg/ha): 7.0 | herbicidal effect rating, CYPSE ([10]; 0.2500 kg/ha): 7.0 | herbicidal effect rating, MOOVA ([11]; 0.0313 kg/ha): 6.0 | herbicidal effect rating, MOOVA ([11]; 0.0625 kg/ha): 9.0 | herbicidal effect rating, MOOVA ([11]; 0.1250 kg/ha): 9.0 | herbicidal effect rating, MOOVA ([11]; 0.2500 kg/ha): 9.0
